Experiments:
P. aeruginosa MB447 = experiment: MIC against XDR strain MB447; format: cell-based, Pseudomonas aeruginosa; conditions: medium not stated
Procedure: MIC assays of PPMOs were determined according to the Clinical and Laboratory Standards Institute (CLSI) broth microdilution method ([29]), using the method previously described ([14]). The assays were performed in 96-well tissue culture plates (Thermo Fisher Scientific, Waltham, MA). All reagents were analytical grade and were obtained from Sigma-Aldrich (St. Louis, MO), Acros Organics (Geel, Belgium), UT Southwestern Campus Pharmacy, or Thermo Fisher Scientific (Waltham, MA). Morpholinopropanesulfonic acid (MOPS) minimal medium was prepared as previously described ([30], [31]).

[1] = system: P. aeruginosa strain MB447; experiment: Acute pneumonia mouse model with XDR strain, survival; format: in vivo, Pseudomonas aeruginosa in BALB/c mice; conditions: for survival at day 4: 15 mg/kg intratracheal at 15 min, then intranasal at 24 h (legend: 6 h); for Median survival: 15 mg/kg, two treatments, Kaplan-Meier
Procedure: To test whether PPMOs retained in vivo activity in an XDR strain, we utilized the AcpP-RXR(5′) PPMO in the acute pneumonia model using XDR P. aeruginosa strain MB447, a carbapenem-resistant bloodstream isolate. […] Mice were infected intratracheally followed by intratracheal treatment 15 min postinfection with either 15 mg/kg of AcpP-RXR(5′), scrambled control PPMO (Scr), PBS, 15 mg/kg of meropenem, or 15 mg/kg of tobramycin, and the bacterial burden was determined at 24 h postinfection.
Mice were infected intratracheally with P. aeruginosa strain MB447 (∼10^7 CFU/mouse). (A) Mice were treated intratracheally 15 min postinfection with 15 mg/kg/24 h of AcpP-RXR(5′) and the corresponding scrambled PPMO, tobramycin, and meropenem and were euthanized at 24 h, and lung tissues were processed as previously described. All samples were plated for viable CFU on PIA. Each symbol represents the value for a single mouse. Error bars represent SEM. Statistical differences were determined using one-way ANOVA and indicated as follows: ****, P < 0.0001; **, P < 0.01; *, P < 0.05. (B) Mice were treated intratracheally 15 min postinfection and intranasally at 6 h postinfection (a total of two treatments) with the same compounds and doses. Mice were monitored for 4 days postinfection.
P. aeruginosa strains PA103, PA103 P1-lux, and MB447 were grown on Pseudomonas isolation agar (PIA) for 16 to 18 h at 37°C and suspended in PBS to an optical density at 600 nm (OD600) of 0.5, corresponding to ∼10^9 CFU/ml. Inocula were adjusted spectrophotometrically to obtain the desired sublethal challenge dose in a volume of 25 μl. Six- to 8-week-old female BALB/c mice (Jackson Laboratories, Bar Harbor, ME) were anesthetized by intraperitoneal injection of 0.2 ml of a mixture of ketamine (6.7 mg/ml) and xylazine (1.3 mg/ml). Mice were infected by noninvasive intratracheal instillation of dilutions of P. aeruginosa strain as indicated ([34]).

P. aeruginosa PA103 = experiment: Acute pneumonia mouse model, intraperitoneal PPMO alone or with tobramycin, survival; format: in vivo, Pseudomonas aeruginosa in BALB/c mice; conditions: intraperitoneal at 6, 12 and 24 h; Kaplan-Meier
Procedure: Mice were treated by intraperitoneal injection of RpsJ-RXR(3′) (15 mg/kg), tobramycin (15 mg/kg), scrambled PPMO (15 mg/kg) alone or in combination (scrambled PPMO plus tobramycin or RpsJ PPMO plus tobramycin) at 6, 12, and 24 h for a total of three treatments after intratracheal infection with a […] dose of P. aeruginosa PA103. Mice were monitored for up to 4 days postinfection. […] Mice treated with RpsJ-RXR(3′) or tobramycin had 50 to 60% increased survival compared to PBS or scrambled control, respectively.
FIG 4 PPMOs work in concert with traditional antibiotics to improve survival in acute lung model of infection. […] Mice were monitored for 4 days postinfection. Results are represented by Kaplan-Meier survival curves and were analyzed by log rank test (log rank test, RpsJ versus PBS, P < 0.001; RpsJ versus Scr, P < 0.05; RpsJ versus RpsJ plus tobramycin, P < 0.05; Scr versus Scr plus tobramycin, P = 0.1778. Median survival: PBS, 36 h; Scr, 48 h; RpsJ, tobramycin, and combination treatments, undefined). […]
Mice were infected as described above and treated either intraperitoneally or intranasally with 15 mg/kg/treatment of PPMO or corresponding controls as indicated. Animals were treated at 6, 12, or 24 h postinfection, with a total of three doses and were monitored for survival up to 4 days postinfection.

[2] = system: P. aeruginosa PAO1 biofilm; experiment: Established biofilm on MBEC pegs, viability (resazurin, CFU); format: cell-based, Pseudomonas aeruginosa; conditions: PAO1, 24 h biofilm, dosed at 24, 32, 40 h, read at 48 h; tobramycin 0.625 µg/ml, PPMO 0.25 µM (legend 2.5 μM)
Procedure: PAO1 biofilms were established on MBEC pegs for 24 h and then treated either with 0.625 μg/ml tobramycin, 0.25 μg/ml piperacillin/tazobactam (Pip/Tazo), 2.5 μM AcpP-RXR(3′), 2.5 μM RpsJ-RXR(3′) or with a combination of PPMO and antibiotic at 24, 32, and 40 h. […]
The viability and metabolic state of biofilm-associated cells were determined using resazurin dye ([17]). […] This time point was previously optimized based on the time needed for the untreated control cells to reach maximum fluorescence. The plates were read at an excitation of 530 nm and emission of 590 nm on a Synergy BioTek plate reader. Viable CFU from the biofilms were also determined by rinsing MBEC pegs in PBS three times to remove planktonic bacteria, followed by cutting the peg off the base with a hot scalpel and placing it in a 14 ml Falcon tube containing 1 ml PBS. […]

[3] = system: P. aeruginosa PAO1 biofilm; experiment: Established biofilm on MBEC pegs, crystal violet (total biomass); format: cell-based, Pseudomonas aeruginosa; conditions: PAO1, 24 h biofilm, dosed at 24, 32, 40 h, read at 48 h; tobramycin 0.625 µg/ml, piperacillin-tazobactam 0.25 µg/ml, PPMO 0.25 µM (legend 2.5 μM)
Procedure: We previously reported that treatment with PPMO alone was effective in both preventing and decreasing established P. aeruginosa biofilm in vitro ([14]). Here, we aimed to determine whether combining a PPMO with a traditional antibiotic (that also had minimal biofilm-inhibitory activity on its own) could enhance biofilm eradication compared to either drug alone. Biofilms were established in minimal biofilm eradication concentration (MBEC) plates by growing P. aeruginosa PAO1 at 37°C. At 24 h postinoculation, lids with established biofilm were moved to new 96-well plates containing fresh media with either antibiotic only (0.625 µg/ml tobramycin or 0.25 µg/ml piperacillin-tazobactam), PPMO only [0.25 µM either AcpP-RXR(3′) or RpsJ-RXR(3′)], or PPMO plus antibiotic as indicated. We hypothesized that the combination of antibiotics and PPMOs targeting a similar cellular process, such as bacterial cell wall (AcpP and piperacillin-tazobactam) or protein synthesis (RpsJ and tobramycin) would enhance biofilm eradication.
FIG 1 PPMOs in combination with traditional antibiotics display enhanced activity and reduce established P. aeruginosa strain PAO1 biofilm. […] Statistical differences were determined by one-way ANOVA and indicated as follows: ***, P < 0.0001; **, P < 0.001; *, P < 0.05; n.s., not significant. […]

| Compound | MIC of strain MB447 against antibiotic (P. aeruginosa MB447) | survival at day 4 [1] | Median survival [1] | Median survival (P. aeruginosa PA103) | decrease of biofilm cell viability compared to no treatment [2] | reduction of established biofilm mass compared to untreated [3] |
| --- | --- | --- | --- | --- | --- | --- |
| C[C@@H](O)[C@H]1C(=O)N2C(C(=O)O)=C(S[C@@H]3CN[C@H](C(=O)N(C)C)C3)[C@H](C)[C@H]12 [meropenem] | 32 µM | 0% | 34 h | – | – | – |
| NC[C@H]1O[C@H](O[C@H]2[C@H](O)[C@@H](O[C@H]3O[C@H](CO)[C@@H](O)[C@H](N)[C@H]3O)[C@H](N)C[C@@H]2N)[C@H](N)C[C@@H]1O [tobramycin] | 8 µM | 67% | undefined | undefined | 50% | 50% |
| piperacillin-tazobactam | – | – | – | – | – | no impact on established biofilm |

Reference: publication PMC7844538, “Peptide-Conjugated Phosphorodiamidate Morpholino Oligomers Retain Activity against Multidrug-Resistant Pseudomonas aeruginosa In Vitro and In Vivo” (mBio, 2021)
